Measurements as given in patent US7361643B2, “Methods for inhibiting angiogenesis” (University of Puerto Rico, priority 2000, dated 2008).

System: Factor VIII:C
Assay: Factor VIII:C level by enzyme-linked immunoassay (ELISA)
Format: cell-based, bovine
Details: 1 μg/ml tunicamycin
Procedure: In conducting ELISA, 96-well microtiter EIA plates, available from Corning Inc., Corning, N.Y., were coated overnight at 4° C. with 50 μl mouse monoclonal anti-Factor VIII:C antibody (i.e., IgG1k which is commercially available from Molecular Biochemicals (previously known as “Boehringer-Mannheim”), Indianapolis, Ind. (diluted 1:500) in 100 mM sodium carbonate buffer, pH 9.2. Blank wells were coated similarly with 0.25 μg of bovine serum albumin (BSA). The plates were washed three times 50 μl each wash with 50 mM Tris-HCl, pH 7.5 containing 150 mM NaCl and 0.5% (v/v) Tween-20 (TBST), available from Bio-Rad Laboratories, Richmond, Calif. and incubated at 37° C. for one hour with 50 μl conditioned media or cell lysates. The cell lysates were obtained by incubating for 20 minutes with 1 ml of ice-cold 20 mM TRIS-HCL, pH 8.0 buffer containing 150 mM NaCl, 1% (v/v) NP-40 and 1 μg/ml aprotinin. At the end of the incubation, the plates were washed three times with TBST, as above, and incubated at 37° C. for another hour with 50 μl of 1:500 diluted monoclonal anti-Factor VIII:C antibody. […] The absorbance was read at approximately 405 nm after 30 minutes by using an EIA microplate reader, Model 2550 with a 405 nm filter, both available from Bio-Rad Laboratories, Richmond, Calif. […]

Substance: tunicamycin
- time from which Factor VIII:C level started increasing: ≥ 32 h
- level of immunopositive Factor VIII:C versus controls (conditioned media and cell lysates): high level
